Organism: Rattus norvegicus
Assay: DrugMatrix - Regimen: Daily Repeat
Format: toxicity, organism-based, Sprague-Dawley
Design: regimen Daily Repeat, gender Male, age 6-8 weeks
Conditions: in vivo, po, route oral GAVAGE, vehicle .5 % CMC; for ABSOLUTE BASOPHIL / ABSOLUTE EOSINOPHIL / ABSOLUTE LYMPHOCYTE / ABSOLUTE MONOCYTE / ABSOLUTE SEGMENTED NEUTROPHIL / BASOPHIL / EOSINOPHIL / ERYTHROCYTE COUNT / HEMATOCRIT / HEMOGLOBIN / LEUKOCYTE COUNT / LYMPHOCYTE / MEAN CORPUSCULAR HEMOGLOBIN / MEAN CORPUSCULAR HEMOGLOBIN CONCENTRATION / MEAN CORPUSCULAR VOLUME / MONOCYTE / NEUTROPHIL / NUCLEATED RED BLOOD CELLS / PLATELET COUNT: tissue Blood; for ALANINE AMINOTRANSFERASE / ALBUMIN / ALKALINE PHOSPHATASE / ASPARTATE AMINOTRANSFERASE / BLOOD UREA NITROGEN / CARBON DIOXIDE / CHLORIDE / CHOLESTEROL / CREATINE PHOSPHOKINASE / CREATININE / GLUCOSE / LACTATE DEHYDROGENASE / LIPASE / PHOSPHORUS / POTASSIUM / SODIUM / TOTAL BILIRUBIN / TOTAL PROTEIN / URIC ACID: tissue Plasma
[1] = 0.3 mg/kg, 72 h, dose level Low, time 3 day
[2] = 0.3 mg/kg, 120 h, dose level Low, time 5 day
[3] = 100 mg/kg, 72 h, dose level High, time 3 day
[4] = 100 mg/kg, 120 h, dose level High, time 5 day

With `CN1[C@@H]2CC[C@H]1C[C@@H](OC(=O)c1c[nH]c3ccccc13)C2` [TROPISETRON] the “ABSOLUTE BASOPHIL” value [1] was 0 CELLS/uL, the “ABSOLUTE EOSINOPHIL” value [1] was 256.33 CELLS/uL and the “ABSOLUTE LYMPHOCYTE” value [1] was 11976 CELLS/uL. For the same compound, the “ABSOLUTE MONOCYTE” value [1] was 96 CELLS/uL, the “ABSOLUTE SEGMENTED NEUTROPHIL” value [1] was 905 CELLS/uL and the BASOPHIL [1] was 0%. The EOSINOPHIL [1] was 2%, the “ERYTHROCYTE COUNT” value [1] was 5.89 x10E6/uL and the HEMATOCRIT [1] was 37.4%. The HEMOGLOBIN [1] was 14.07 G/DL, the “LEUKOCYTE COUNT” value [1] was 13.23 x10E3/uL and the LYMPHOCYTE [1] was 90.67%. The “MEAN CORPUSCULAR HEMOGLOBIN” value [1] was 23.87 pg, the “MEAN CORPUSCULAR HEMOGLOBIN CONCENTRATION” value [1] was 37.63 G/DL and the “MEAN CORPUSCULAR VOLUME” value [1] was 63.5 fL. The MONOCYTE [1] was 0.67%, the NEUTROPHIL [1] was 6.67% and the “NUCLEATED RED BLOOD CELLS” value [1] was 0 /100WBC. The “PLATELET COUNT” value [1] was 1325.33 x10E3/uL, the “ALANINE AMINOTRANSFERASE” value [1] was 46.33 u/L and the ALBUMIN [1] was 4.43 G/DL. The “ALKALINE PHOSPHATASE” value [1] was 408.67 u/L, the “ASPARTATE AMINOTRANSFERASE” value [1] was 87.33 u/L and the “BLOOD UREA NITROGEN” value [1] was 13 mg/dL. For the same compound, the “CARBON DIOXIDE” value [1] was 26 mmol/L, the CHLORIDE [1] was 106 MEQ/L and the CHOLESTEROL [1] was 71.33 mg/dL. For the same compound, the “CREATINE PHOSPHOKINASE” value [1] was 621.67 u/L, the CREATININE [1] was 0.21 mg/dL and the GLUCOSE [1] was 160.67 mg/dL. For the same compound, the “LACTATE DEHYDROGENASE” value [1] was 123.67 u/L, the LIPASE [1] was 9 u/L and the PHOSPHORUS [1] was 14.4 mg/dL. For the same compound, the POTASSIUM [1] was 6.64 MEQ/L, the SODIUM [1] was 147.37 MEQ/L and the “TOTAL BILIRUBIN” value [1] was 0.2 mg/dL. The “TOTAL PROTEIN” value [1] was 6.17 G/DL, the “URIC ACID” value [1] was 2.47 mg/dL and the “ABSOLUTE BASOPHIL” value [2] was 0 CELLS/uL. The “ABSOLUTE EOSINOPHIL” value [2] was 244.67 CELLS/uL, the “ABSOLUTE LYMPHOCYTE” value [2] was 13752.67 CELLS/uL and the “ABSOLUTE MONOCYTE” value [2] was 213.33 CELLS/uL. The “ABSOLUTE SEGMENTED NEUTROPHIL” value [2] was 1056 CELLS/uL, the BASOPHIL [2] was 0% and the EOSINOPHIL [2] was 1.67%. For the same compound, the “ERYTHROCYTE COUNT” value [2] was 5.41 x10E6/uL, the HEMATOCRIT [2] was 34.5% and the HEMOGLOBIN [2] was 13.27 G/DL. For the same compound, the “LEUKOCYTE COUNT” value [2] was 15.27 x10E3/uL, the LYMPHOCYTE [2] was 90.33% and the “MEAN CORPUSCULAR HEMOGLOBIN” value [2] was 24.57 pg. For the same compound, the “MEAN CORPUSCULAR HEMOGLOBIN CONCENTRATION” value [2] was 38.43 G/DL, the “MEAN CORPUSCULAR VOLUME” value [2] was 63.8 fL and the MONOCYTE [2] was 1.33%. The NEUTROPHIL [2] was 6.67%, the “NUCLEATED RED BLOOD CELLS” value [2] was 0 /100WBC and the “PLATELET COUNT” value [2] was 1293.33 x10E3/uL. For the same compound, the “ALANINE AMINOTRANSFERASE” value [2] was 47.33 u/L, the ALBUMIN [2] was 4.13 G/DL and the “ALKALINE PHOSPHATASE” value [2] was 386.33 u/L. For the same compound, the “ASPARTATE AMINOTRANSFERASE” value [2] was 80 u/L, the “BLOOD UREA NITROGEN” value [2] was 17.67 mg/dL and the “CARBON DIOXIDE” value [2] was 25.33 mmol/L. The CHLORIDE [2] was 106.67 MEQ/L, the CHOLESTEROL [2] was 71.33 mg/dL and the “CREATINE PHOSPHOKINASE” value [2] was 310 u/L. The CREATININE [2] was 0.21 mg/dL, the GLUCOSE [2] was 162 mg/dL and the “LACTATE DEHYDROGENASE” value [2] was 329 u/L. For the same compound, the LIPASE [2] was 9 u/L, the PHOSPHORUS [2] was 13.37 mg/dL and the POTASSIUM [2] was 6 MEQ/L. The SODIUM [2] was 145.27 MEQ/L, the “TOTAL BILIRUBIN” value [2] was 0.27 mg/dL and the “TOTAL PROTEIN” value [2] was 6.37 G/DL. The “URIC ACID” value [2] was 1.77 mg/dL, the “ABSOLUTE BASOPHIL” value [3] was 0 CELLS/uL and the “ABSOLUTE EOSINOPHIL” value [3] was 0 CELLS/uL. The “ABSOLUTE LYMPHOCYTE” value [3] was 8279 CELLS/uL, the “ABSOLUTE MONOCYTE” value [3] was 180 CELLS/uL and the “ABSOLUTE SEGMENTED NEUTROPHIL” value [3] was 707.67 CELLS/uL. For the same compound, the BASOPHIL [3] was 0%, the EOSINOPHIL [3] was 0% and the “ERYTHROCYTE COUNT” value [3] was 5.38 x10E6/uL. For the same compound, the HEMATOCRIT [3] was 33.5%, the HEMOGLOBIN [3] was 12.6 G/DL and the “LEUKOCYTE COUNT” value [3] was 9.17 x10E3/uL. For the same compound, the LYMPHOCYTE [3] was 90.33%, the “MEAN CORPUSCULAR HEMOGLOBIN” value [3] was 23.47 pg and the “MEAN CORPUSCULAR HEMOGLOBIN CONCENTRATION” value [3] was 37.6 G/DL. The “MEAN CORPUSCULAR VOLUME” value [3] was 62.3 fL, the MONOCYTE [3] was 2% and the NEUTROPHIL [3] was 7.67%. For the same compound, the “NUCLEATED RED BLOOD CELLS” value [3] was 0 /100WBC, the “PLATELET COUNT” value [3] was 1392.33 x10E3/uL and the “ALANINE AMINOTRANSFERASE” value [3] was 63.67 u/L. The ALBUMIN [3] was 4.3 G/DL, the “ALKALINE PHOSPHATASE” value [3] was 429.67 u/L and the “ASPARTATE AMINOTRANSFERASE” value [3] was 69.33 u/L. For the same compound, the “BLOOD UREA NITROGEN” value [3] was 14.33 mg/dL, the “CARBON DIOXIDE” value [3] was 27.67 mmol/L and the CHLORIDE [3] was 105.67 MEQ/L. For the same compound, the CHOLESTEROL [3] was 54.33 mg/dL, the “CREATINE PHOSPHOKINASE” value [3] was 189.33 u/L and the CREATININE [3] was 0.3 mg/dL. The GLUCOSE [3] was 155.33 mg/dL, the “LACTATE DEHYDROGENASE” value [3] was 122.67 u/L and the LIPASE [3] was 8.33 u/L. For the same compound, the PHOSPHORUS [3] was 13.03 mg/dL, the POTASSIUM [3] was 5.65 MEQ/L and the SODIUM [3] was 149.97 MEQ/L. The “TOTAL BILIRUBIN” value [3] was 0.2 mg/dL, the “TOTAL PROTEIN” value [3] was 5.87 G/DL and the “URIC ACID” value [3] was 1.2 mg/dL. The “ABSOLUTE BASOPHIL” value [4] was 0 CELLS/uL, the “ABSOLUTE EOSINOPHIL” value [4] was 100.67 CELLS/uL and the “ABSOLUTE LYMPHOCYTE” value [4] was 14254 CELLS/uL. The “ABSOLUTE MONOCYTE” value [4] was 107 CELLS/uL, the “ABSOLUTE SEGMENTED NEUTROPHIL” value [4] was 1271.67 CELLS/uL and the BASOPHIL [4] was 0%. The EOSINOPHIL [4] was 0.67%, the “ERYTHROCYTE COUNT” value [4] was 5.79 x10E6/uL and the HEMATOCRIT [4] was 36.33%. For the same compound, the HEMOGLOBIN [4] was 13.6 G/DL, the “LEUKOCYTE COUNT” value [4] was 15.73 x10E3/uL and the LYMPHOCYTE [4] was 90.67%. For the same compound, the “MEAN CORPUSCULAR HEMOGLOBIN” value [4] was 23.5 pg, the “MEAN CORPUSCULAR HEMOGLOBIN CONCENTRATION” value [4] was 37.43 G/DL and the “MEAN CORPUSCULAR VOLUME” value [4] was 62.73 fL. For the same compound, the MONOCYTE [4] was 0.67%, the NEUTROPHIL [4] was 8% and the “NUCLEATED RED BLOOD CELLS” value [4] was 0 /100WBC. The “PLATELET COUNT” value [4] was 1276.33 x10E3/uL, the “ALANINE AMINOTRANSFERASE” value [4] was 63.67 u/L and the ALBUMIN [4] was 4.2 G/DL. For the same compound, the “ALKALINE PHOSPHATASE” value [4] was 501 u/L, the “ASPARTATE AMINOTRANSFERASE” value [4] was 81.67 u/L and the “BLOOD UREA NITROGEN” value [4] was 16 mg/dL. For the same compound, the “CARBON DIOXIDE” value [4] was 26.33 mmol/L, the CHLORIDE [4] was 105.33 MEQ/L and the CHOLESTEROL [4] was 59.33 mg/dL. For the same compound, the “CREATINE PHOSPHOKINASE” value [4] was 219 u/L, the CREATININE [4] was 0.25 mg/dL and the GLUCOSE [4] was 178 mg/dL. The “LACTATE DEHYDROGENASE” value [4] was 91 u/L, the LIPASE [4] was 9 u/L and the PHOSPHORUS [4] was 15.37 mg/dL. For the same compound, the POTASSIUM [4] was 5.6 MEQ/L, the SODIUM [4] was 146.8 MEQ/L and the “TOTAL BILIRUBIN” value [4] was 0.17 mg/dL. The “TOTAL PROTEIN” value [4] was 6.13 G/DL and the “URIC ACID” value [4] was 2.13 mg/dL.

Source: ChEMBL document CHEMBL3885881, “DrugMatrix”
